The text below walks through data of US10456446B2, “Use of human small leucine zipper protein in osteogenesis procedure” (Korea University Research and Business Foundation, priority 2013, dated 2019).

Ends that are not written are not given here. d = 2'-deoxy (DNA)

In series [1] the test system is PPARγ2. Description: GST / His pull-down and immunoprecipitation of sLZIP with PPARγ2. Conditions: GST pull-down, transfected 293T cells. It counts as binding. On the procedure: 293T cells were obtained and washed with cold PBS. The cells were re-suspended in an IP lysis buffer [25 mM of Tris-HCl (pH 7.4), 150 mM of NaCl, 1 mM of EDTA, 1% NP-40 and 5% glycerol, and a protease inhibitor]. A suspension was centrifuged at 16,000×g for 20 minutes at 4° C. Supernatants were collected and incubated with 0.5 μg of appropriate antibodies and 25 μl of protein A/G-agarose or a GST Sepharose 4B bead for 24 hours at 4° C. A protein complex was centrifuged at 1,000×g with a cold IP lysis buffer for 1 minute and washed five times. The final pellet was re-suspended in 50 μl of an SDS-sample buffer containing 5% β-mercaptoethanol and heated for 10 minutes at 100° C. A protein sample was isolated in SDS-PAGE (8 to 10%) and transferred to nitrocellulose membranes. Co-precipitated proteins were detected according to western blotting using specific antibodies.
In order to examine whether the transcriptional activity of PPARγ2 is regulated by interaction with sLZIP, interaction between sLZIP and PPARγ2 was examined. For this purpose, 293T cells were transfected with GST-sLZIP and Myc-PPARγ2. Cell lysates were obtained and GST pull-down analysis was performed using a glutathione 4B bead. A protein complex was analyzed in SDS-PAGE and then immunoblotted with specific antibodies (FIG. 2A). The 293T cells were transfected with GST-PPARγ2 and Flag-sLZIP, and identified according to GST-pull-down analysis (FIG. 2B). PPARγ2 was translated in vitro by a TNT translation system (Promega). His-sLZIP proteins were expressed in BL21 cells using an IPTG-inducement system. Purified His-sLZIP proteins were subjected to His pull-down analysis. Proteins bound to the bead were analyzed in SDS-PAGE, and then immunoblotted with anti-PPARγ2 and anti-His antibodies (FIG. 2C). GFP-PPARγ2 and Flag-sLZIP constructs were expressed in C3H10T1/2 cells, and analyzed using mouse anti-Flag and Texas Red-labeled anti-mouse antibodies under a fluorescence microscope. The nucleus was stained with DAPI (FIG. 2D).
Activation of many nuclear receptors depends on a supplement of coactivators. Therefore, a domain of sLZIP necessary for binding with PPARγ2 was examined. For this purpose, 293T cells were transfected with GST-full length sLZIP (1-354), N-terminal deletion mutant sLZIP (1-228), C-terminal deletion mutant sLZIP (229-354), CC-terminal deletion mutant sLZIP (297-354) and PPARγ2. Cell lysates were obtained and GST pull-down analysis was performed using a glutathione 4B bead. A protein complex was analyzed in SDS-PAGE, and then immunoblotted with specific antibodies (FIG. 3A). 293T cells were transfected with Flag-full length PPARγ2, full length PPARγ2, N-terminal deletion mutant PPARγ2 (1-310), C-terminal deletion mutants PPARγ2 (139-505) and GST-sLZIP. Cell lysates were obtained and GST pull-down analysis was performed. A protein complex was analyzed in SDS-PAGE, and then immunoblotted with anti-GST and anti-Flag antibodies (FIG. 3B).
For this purpose, 293T cells were transfected with GST-PPARγ2 and Flag-sLZIP and were treated or not treated with 10 nM of RZD for 24 hours. Cell lysates were obtained and GST pull-down analysis (FIG. 5A) and immunoprecipitation (FIG. 5B) were performed using a glutathione 4B bead. A protein complex was analyzed in SDS-PAGE, and immunoblotted with anti-GST and anti-Flag antibodies. GST-PARγ2 and Flag-sLZIP were expressed in the 293T cells, and the cells were treated with 10 nM of RZD according to time of day. The cell lysates were GST pull-down analyzed (FIG. 5C). 293T cells were transfected with GST-HDAC3 and Flag-sLZIP, and treated or not treated with 10 nM of RZD for 24 hours. The cell lysates were GST pull-down analyzed (FIG. 5D). Flag-sLZIP was expressed in the 293T cells, and the cells were treated with 10 nM of RZD for 24 hours. Immunoprecipitation analysis of the cell lysates was performed using anti-NCoR1 antibodies. […]

Series [2] concerns the target T1, PPARγ2 (Homo sapiens, UniProt P37231).
T1 construct: expressed in transfected cells; host or cells: 293T
T1 sequence (P37231 1-505): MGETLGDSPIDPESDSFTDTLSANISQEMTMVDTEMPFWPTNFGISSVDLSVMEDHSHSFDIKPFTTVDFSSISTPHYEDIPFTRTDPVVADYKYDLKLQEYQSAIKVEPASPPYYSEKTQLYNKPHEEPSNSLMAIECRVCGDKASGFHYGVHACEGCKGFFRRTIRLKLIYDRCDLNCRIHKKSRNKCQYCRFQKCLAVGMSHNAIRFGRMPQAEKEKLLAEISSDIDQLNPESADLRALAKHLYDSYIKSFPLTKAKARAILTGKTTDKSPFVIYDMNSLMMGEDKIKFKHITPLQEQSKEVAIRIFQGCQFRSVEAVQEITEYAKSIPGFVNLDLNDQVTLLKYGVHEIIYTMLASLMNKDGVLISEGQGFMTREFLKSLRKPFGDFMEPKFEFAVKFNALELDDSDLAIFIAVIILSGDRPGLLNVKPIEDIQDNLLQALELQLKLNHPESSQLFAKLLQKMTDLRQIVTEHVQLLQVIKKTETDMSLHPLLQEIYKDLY
Briefly: PPARγ2 transcriptional activity, FABP4-Luc luciferase reporter in transfected 293T cells. In kind it is cell-based. Conditions: for sLZIP-mediated PPARγ2 transcriptional activity: 100 nM si-RNA, with or without 10 nM RZD. On the procedure:
C3H10T1/2 and 293T cells were plated in a 12-well culture dish at a density of 2×10^5 cells/well and incubated for 24 hours. Then, according to instructions of the manufacturer, the cells were transfected with a 0.2 μg of reporter genes and 0.1 to 0.5 μg of a laboratory plasmid using Lipofectamine 2000 or Genefectine. After 24 hours, the cells were cultured in a serum-free DMEM with or without 10 nM of rosiglitazone. siRNAs were prepared using sLZIP and HDAC target sequences (Table 1). For an RNA interference experiment, according to instructions of the manufacturer, the cells were transfected with scrambled control group RNA and appropriate siRNAs using Lipofectamine 2000. Human MSC and C3H10T/1/2 cells were infected with an adenovirus vector containing cDNA of human sLZIP or an empty vector. The infected medium was exchanged with a fresh medium after two hours.
Appropriately transfected cells were washed with cold PBS twice, and a reporter lysis buffer (Promega) was used and lysed in a culture dish. Luciferase analysis was performed using a luciferase analysis system (Promega Corporation, Madison, Wis.). A luciferase activity was recorded in Luminometer 20/20^n (Turner BioSystems, Sunnyvale, Calif.) according to instructions of the manufacturer. The luciferase activity was normalized to a β-galactosidase activity. For β-galactosidase analysis, CMV-β-galactosidase was transfected with luciferase reporter genes. All pieces of data were represented as mean±standard deviation of the results from at least three independent experiments.
In order to examine an effect of sLZIP on the transcriptional activity of PPARγ2, 293T cells were temporarily transfected with PPARγ2 (0.5 μg), β-galactosidase (0.1 μg), FABP4-Luc reporter genes (0.2 μg) and sLZIP at different contents (0.1 to 0.5 μg). After the transfection, the cells were stimulated with or without 10 nM of rosiglitazone (RZD) (FIG. 1A), pioglitazone (PZD) (FIG. 1B), and troglitazone (TZD) (FIG. 1C). A relative luciferase activity was analyzed with or without cell ligand treatment 24 hours after transfection. Also, the 293T cells were transiently transfected with si-sLZIP at different contents (50 and 100 nM), and the cells were treated or not treated with RZD (FIG. 1D). FABP4-Luc stable C3H10T1/2 cells were infected with a sLZIP-expressing adenovirus, and then differentiated into adipocytes for 4 days (FIG. 1E). A luciferase activity was normalized to a β-galactosidase activity and represented as a relative activity (fold change). All experiments were repeated three times, and bars in the graph represent mean±standard deviation. *, P<0.05; **, P<0.01
For this purpose, 293T cells were transiently transfected with PPARγ2 (0.5 μg), β-galactosidase (0.1 μg), FABP4-Luc reporter genes (0.2 μg) and sLZIP (0.1 μg). After the transfection, the cells were stimulated with or without 10 nM of RZD and 10 nM of TSA (FIG. 4A). A promoter activity was measured according to luciferase analysis. In the 293T cells, FABP4-Luc reporter genes, sLZIP, PPAR, β-galactosidase, and 100 nM of si-RNAs and HDAC1, 2, 3 and 8 for a control group were expressed. After the transfection, the cells were stimulated with or without 10 nM of RZD, and a promoter activity was measured (FIG. 4B). 293T cells were temporarily transfected with FABP4-Luc reporter genes, PPARγ2, β-galactosidase, HDAC3 (0.5 μg) and sLZIP (0.1 μg). After the transfection, the cells were stimulated with or without 10 nM of RZD, and luciferase analysis was performed (FIG. 4C). A luciferase activity was normalized to a β-galactosidase activity and represented as a relative intensity (fold change). All experiments were repeated three times, and bars in the graph represent mean±standard deviation. GFP-sLZIP expression constructs were expressed in C3H10T1/2 cells, rabbit anti-HDAC3 antibodies and Texas Red-labeled anti-rabbit antibodies were used and analysis was performed under a fluorescence microscope. The nucleus was stained with DAPI (FIG. 4D). […]
For orientation: Reporter assays use an easily measured gene product as a stand-in for the process of interest.

Consider “CC domains of sLZIP: CC-terminal deletion mutant of sLZIP (297-354), contains proline-rich region (YMPQAPSAEPPLEWPFPDLFSEPLCRGPILPLQANLTRKGGWLPTGSPSVILQDRYSG; also: fused to dimerising Fc or GST)”, for which the “interaction with PPARγ2” value in the series on PPARγ2 [1] was “interacted with PPARγ2”.
Regarding “HDAC3: siRNA used to knock down HDAC3, SEQ ID NO: 11 and 12 (chain 1 GCCGGUUAUCAACCAGGUA; chain 2 UACCUGGUUGAUAACCGGC; 3' dTdT, sugars by position and backbone not given here) [reference compound]”, in the series with PPARγ2 [2], the “sLZIP-mediated PPARγ2 transcriptional activity” value is “significantly increased”.
Turning to “si-sLZIP: siRNA for sLZIP, SEQ ID NO: 5 and 6 (+dTdT) (chain 1 GGACCCAGAUGACUCCACAGCAUAU; chain 2 AUAUGCUGUGGAGUCAUCUGGGUCC; 3' dTdT, sugars by position and backbone not given here) [reference compound]”, in the series with PPARγ2 [2] (si-sLZIP 50 and 100 nM, treated or not treated with RZD), the “transcriptional activity of PPARγ2 (relative luciferase activity)” value was “increased the transcriptional activity of PPARγ2”.
In the case of “siRNA for HDAC1: siRNA against HDAC1, SEQ ID NO: 7 and 8 (chain 1 CGACUGUUUGAGAACCUUA; chain 2 UAAGGUUCUCAAACAGUCGCU; 3' dTdT, sugars by position and backbone not given here) [reference compound]”, the “sLZIP-mediated PPARγ2 transcriptional activity” value with PPARγ2 [2] is reported as “not involved in sLZIP-mediated PPARγ2 regulation”.
“siRNA for HDAC2: siRNA against HDAC2, SEQ ID NO: 9 and 10 (chain 1 GGUCAAUAAGACCAGAUAA; chain 2 UUAUCUGGUCUUAUUGACCG; 3' dTdT, sugars by position and backbone not given here) [reference compound]”: the “sLZIP-mediated PPARγ2 transcriptional activity” value with PPARγ2 [2] is “not involved in sLZIP-mediated PPARγ2 regulation”.
Regarding “siRNA for HDAC8: siRNA against HDAC8, SEQ ID NO: 13 and 14 (chain 1 CAUUCAGGAUGGCAUACAA; chain 2 UUGUAUGCCAUCCUGAAUGGG; 3' dTdT, sugars by position and backbone not given here) [reference compound]”, in the series with PPARγ2 [2], the “sLZIP-mediated PPARγ2 transcriptional activity” value is reported as “not involved in sLZIP-mediated PPARγ2 regulation”.

B1: C domains of sLZIP: C-terminal deletion mutant of sLZIP (229-354) (protein)
chain: MYSSDTRGSLPAEHGVLSRQLRALPSEDPYQLELPALQSEVPKDSTHQWLDGSDCVLQAPGNTSCLLHYMPQAPSAEPPLEWPFPDLFSEPLCRGPILPLQANLTRKGGWLPTGSPSVILQDRYSG
modifications: left off: a dimerising Fc or GST
For B1, the “interaction with PPARγ2” value with PPARγ2 [1] is given as “interacted with PPARγ2”.
